Laboratory results from US10532041B2, “Formulation comprising glycopyrrolate, method and apparatus” (Vectura Limited, priority 2014, dated 2020).

Key:
[1] = Particle size distribution, MALVERN MASTERSIZER 3000, Hydro MV wet dispersion (wet analysis); assay type: physicochemical; settings: wet analysis method; starting material before milling
Procedure: The particle size distribution for the micronized glycopyrrolate formulations was determined by MALVERN MASTERSIZER® 3000 using the Hydro MV wet dispersion unit as follows: the dispersion unit was filled with iso-octane (2,2,4-trimethylpentane). The pump speed was set to 3000 rpm. Ten millilitres of 0.1% lecithin in iso-octane was added to approximately 10 mg of the micronized glycopyrrolate formulation, this pre-dispersion was then sonicated for 3 minutes using a Sonopuls sonic probe at 50% intensity. The dispersed particles were added to the dispersion unit to reach an obscuration of 5-15%. The optical properties used included a refractive index of 1.52 and an absorption value of 1.0 for the glycopyrrolate, and a refractive index of 1.45 and an absorption value of 1.0 for the magnesium stearate and a refractive index of 1.391 for the iso-octane. Six replicates were performed per measurement.

[2] = Particle size distribution, MALVERN MASTERSIZER 3000, Aero S dry dispersion method at 4 Bar; assay type: physicochemical; settings: unmicronised source powder
Procedure: The particle size distribution for unmicronised glycopyrrolate was determined by MALVERN MASTERSIZER analysis (MALVERN MASTERSIZER® 3000, using the Aero S dry dispersion method at 4 Bar) and found to be D10=11.3 μm, D50=98.0 μm, D90=281 μm (see FIG. 1).
The particle size distributions for Formulation 1 (D10=0.283 μm, D50=1.66 μm, D90=5.40 μm) and Formulation 2 (D10=0.270 μm, D50=1.41 μm, D90=3.66 μm were determined by MALVERN MASTERSIZER® analysis (MALVERN MASTERSIZER® 3000, using the Aero S dry dispersion method at 4 Bar). These are reported in FIGS. 4 and 8 respectively and Table 1 below.
The particle size distribution for the micronized glycopyrrolate formulations was determined by MALVERN MASTERSIZER® analysis (MALVERN MASTERSIZER® 3000, using the Aero S dry dispersion method at 4 Bar and a feed rate of between 30-40%). The optical properties used included a refractive index of 1.52 and an absorption value of 1.0.

D10 [2] [μm] | D50 [2] [μm] | D90 [2] [μm] | cumulative fraction under 5 μm ([2]; stored sealed) [%] | Compound | D10 [1] [μm] | D50 [1] [μm] | D90 [1] [μm]
11.3 | 98.0 | 281 | 4.68 | C[N+]1(C)CCC(OC(=O)C(O)(c2ccccc2)C2CCCC2)C1 (stereo not shown) [unmicronised glycopyrrolate, glycopyrrolate] | 20.6 | 148.7 | 409.7
 |  |  |  | magnesium stearate | 2.8 | 8.8 | 27.4
